Source: ChEMBL document CHEMBL5442219

Experiments:
Conditions in all cases: Compound concentration 10 µM
[1] = target: T1, Alpha-1A adrenergic receptor (Homo sapiens) (UniProt P35348)
T1 sequence (whole entry): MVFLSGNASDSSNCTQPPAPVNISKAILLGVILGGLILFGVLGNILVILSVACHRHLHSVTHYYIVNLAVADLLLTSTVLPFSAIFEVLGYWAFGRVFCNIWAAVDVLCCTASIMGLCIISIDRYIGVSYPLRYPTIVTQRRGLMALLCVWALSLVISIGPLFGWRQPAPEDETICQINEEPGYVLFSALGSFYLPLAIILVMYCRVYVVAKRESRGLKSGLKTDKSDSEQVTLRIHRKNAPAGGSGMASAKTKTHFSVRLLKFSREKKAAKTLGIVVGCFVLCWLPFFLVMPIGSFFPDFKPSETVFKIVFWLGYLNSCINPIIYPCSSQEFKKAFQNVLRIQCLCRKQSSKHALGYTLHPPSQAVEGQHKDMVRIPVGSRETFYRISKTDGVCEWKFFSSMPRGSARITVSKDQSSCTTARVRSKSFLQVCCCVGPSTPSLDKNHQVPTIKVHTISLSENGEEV
Description: PDSP Primary Binding target: ADRA1A - Compounds are tested at 10 uM concentration, plate are incubated at room temperature in the dark for 90 minutes. Reaction are stopped by vacuum filtration onto 0.3% polyethyleneimine soaked filter mats using Filtermate harvester. Scintilation cocktail is then melted onto microwave-dried filters on a hot plate and the radio activity is counted in Microbia counter.

[2] = target: T2, Alpha-1B adrenergic receptor (Homo sapiens) (UniProt P35368)
T2 sequence (whole entry): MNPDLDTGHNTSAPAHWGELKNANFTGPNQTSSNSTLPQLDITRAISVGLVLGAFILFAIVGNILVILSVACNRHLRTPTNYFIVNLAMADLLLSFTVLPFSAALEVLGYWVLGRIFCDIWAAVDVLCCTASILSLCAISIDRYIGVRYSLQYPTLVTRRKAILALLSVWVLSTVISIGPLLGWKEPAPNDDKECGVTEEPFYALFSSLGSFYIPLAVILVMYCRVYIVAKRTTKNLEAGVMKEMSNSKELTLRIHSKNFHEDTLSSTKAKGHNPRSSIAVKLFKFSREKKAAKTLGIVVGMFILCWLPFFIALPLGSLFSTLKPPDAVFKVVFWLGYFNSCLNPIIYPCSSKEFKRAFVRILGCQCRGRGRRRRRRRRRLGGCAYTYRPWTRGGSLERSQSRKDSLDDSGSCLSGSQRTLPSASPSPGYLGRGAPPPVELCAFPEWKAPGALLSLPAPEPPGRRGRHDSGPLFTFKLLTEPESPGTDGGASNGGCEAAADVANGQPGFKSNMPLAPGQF
Description: PDSP Primary Binding target: ADRA1B - Compounds are tested at 10 uM concentration, plate are incubated at room temperature in the dark for 90 minutes. Reaction are stopped by vacuum filtration onto 0.3% polyethyleneimine soaked filter mats using Filtermate harvester. Scintilation cocktail is then melted onto microwave-dried filters on a hot plate and the radio activity is counted in Microbia counter.

[3] = target: D(1B) dopamine receptor (Homo sapiens) (UniProt P21918)
D(1B) dopamine receptor (Homo sapiens), sequence (P21918 whole entry): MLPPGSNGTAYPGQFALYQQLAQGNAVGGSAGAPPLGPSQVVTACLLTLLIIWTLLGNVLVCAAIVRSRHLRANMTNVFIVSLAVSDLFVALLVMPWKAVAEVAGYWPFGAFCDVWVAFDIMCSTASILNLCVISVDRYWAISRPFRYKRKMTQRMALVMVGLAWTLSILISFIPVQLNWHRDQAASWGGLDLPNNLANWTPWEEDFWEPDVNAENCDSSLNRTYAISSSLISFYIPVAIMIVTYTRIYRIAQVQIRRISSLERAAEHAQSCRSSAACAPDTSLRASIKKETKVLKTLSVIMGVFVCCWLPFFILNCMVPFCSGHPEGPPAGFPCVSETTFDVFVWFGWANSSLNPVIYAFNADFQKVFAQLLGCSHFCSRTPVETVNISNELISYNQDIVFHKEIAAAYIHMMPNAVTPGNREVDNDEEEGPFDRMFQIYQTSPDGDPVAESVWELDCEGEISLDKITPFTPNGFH
Description: PDSP Primary Binding target: DRD5 - Compounds are tested at 10 uM concentration, plate are incubated at room temperature in the dark for 90 minutes. Reaction are stopped by vacuum filtration onto 0.3% polyethyleneimine soaked filter mats using Filtermate harvester. Scintilation cocktail is then melted onto microwave-dried filters on a hot plate and the radio activity is counted in Microbia counter.

[4] = target: Histamine H1 receptor (Homo sapiens) (UniProt P35367)
Histamine H1 receptor (Homo sapiens), sequence (P35367 whole entry): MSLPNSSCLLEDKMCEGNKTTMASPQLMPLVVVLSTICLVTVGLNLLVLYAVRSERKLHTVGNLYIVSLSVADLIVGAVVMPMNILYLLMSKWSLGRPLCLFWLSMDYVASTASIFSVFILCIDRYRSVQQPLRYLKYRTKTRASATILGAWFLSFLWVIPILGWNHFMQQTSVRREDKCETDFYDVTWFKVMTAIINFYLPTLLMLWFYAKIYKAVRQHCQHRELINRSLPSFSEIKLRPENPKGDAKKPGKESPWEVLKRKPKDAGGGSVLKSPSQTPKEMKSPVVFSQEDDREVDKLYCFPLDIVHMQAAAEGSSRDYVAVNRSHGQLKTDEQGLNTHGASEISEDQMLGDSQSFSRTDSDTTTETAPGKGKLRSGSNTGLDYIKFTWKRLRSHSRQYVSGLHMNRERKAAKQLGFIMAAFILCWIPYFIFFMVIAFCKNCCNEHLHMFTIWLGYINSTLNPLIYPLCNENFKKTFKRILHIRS
Description: PDSP Primary Binding target: HRH1 - Compounds are tested at 10 uM concentration, plate are incubated at room temperature in the dark for 90 minutes. Reaction are stopped by vacuum filtration onto 0.3% polyethyleneimine soaked filter mats using Filtermate harvester. Scintilation cocktail is then melted onto microwave-dried filters on a hot plate and the radio activity is counted in Microbia counter.

[5] = target: T3, 5-hydroxytryptamine receptor 1A (Homo sapiens) (UniProt P08908)
T3 sequence (whole entry): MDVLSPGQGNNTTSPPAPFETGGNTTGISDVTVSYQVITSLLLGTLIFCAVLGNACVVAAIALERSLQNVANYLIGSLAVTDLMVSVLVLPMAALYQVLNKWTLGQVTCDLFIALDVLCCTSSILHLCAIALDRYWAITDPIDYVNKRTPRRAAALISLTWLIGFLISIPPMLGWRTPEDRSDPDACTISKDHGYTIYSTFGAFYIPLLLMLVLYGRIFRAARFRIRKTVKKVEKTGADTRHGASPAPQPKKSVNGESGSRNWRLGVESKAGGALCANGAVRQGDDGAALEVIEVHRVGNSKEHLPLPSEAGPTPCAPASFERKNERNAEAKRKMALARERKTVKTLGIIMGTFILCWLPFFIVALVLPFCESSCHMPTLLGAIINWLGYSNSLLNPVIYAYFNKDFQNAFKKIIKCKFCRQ
Description: PDSP Primary Binding target: HTR1A - Compounds are tested at 10 uM concentration, plate are incubated at room temperature in the dark for 90 minutes. Reaction are stopped by vacuum filtration onto 0.3% polyethyleneimine soaked filter mats using Filtermate harvester. Scintilation cocktail is then melted onto microwave-dried filters on a hot plate and the radio activity is counted in Microbia counter.

[6] = target: 5-hydroxytryptamine receptor 5A (Homo sapiens) (UniProt P47898)
5-hydroxytryptamine receptor 5A (Homo sapiens), sequence (P47898 whole entry): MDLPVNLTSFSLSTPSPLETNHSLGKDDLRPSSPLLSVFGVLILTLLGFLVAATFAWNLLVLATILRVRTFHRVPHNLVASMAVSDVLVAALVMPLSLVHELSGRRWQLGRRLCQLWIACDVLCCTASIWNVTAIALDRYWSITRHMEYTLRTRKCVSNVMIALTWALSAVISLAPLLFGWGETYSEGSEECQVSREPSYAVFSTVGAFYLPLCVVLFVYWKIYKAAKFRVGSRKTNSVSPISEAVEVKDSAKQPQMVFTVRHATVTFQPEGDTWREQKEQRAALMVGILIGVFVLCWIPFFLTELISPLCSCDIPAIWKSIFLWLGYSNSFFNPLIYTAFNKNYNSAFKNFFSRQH
Description: PDSP Primary Binding target: HTR5A - Compounds are tested at 10 uM concentration, plate are incubated at room temperature in the dark for 90 minutes. Reaction are stopped by vacuum filtration onto 0.3% polyethyleneimine soaked filter mats using Filtermate harvester. Scintilation cocktail is then melted onto microwave-dried filters on a hot plate and the radio activity is counted in Microbia counter.

[7] = target: Kappa-type opioid receptor (Homo sapiens) (UniProt P41145)
Kappa-type opioid receptor (Homo sapiens), sequence (P41145 whole entry): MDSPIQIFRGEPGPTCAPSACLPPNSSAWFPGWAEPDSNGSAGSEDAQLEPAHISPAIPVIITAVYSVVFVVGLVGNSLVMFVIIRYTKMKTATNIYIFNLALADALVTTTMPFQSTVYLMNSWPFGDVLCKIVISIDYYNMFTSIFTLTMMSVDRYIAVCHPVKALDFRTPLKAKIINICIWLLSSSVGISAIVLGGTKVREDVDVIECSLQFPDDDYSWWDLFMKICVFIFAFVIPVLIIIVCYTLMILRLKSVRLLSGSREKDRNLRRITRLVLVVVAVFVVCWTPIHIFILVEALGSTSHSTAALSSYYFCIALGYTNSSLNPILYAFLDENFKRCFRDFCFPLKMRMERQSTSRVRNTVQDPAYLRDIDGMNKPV
Description: PDSP Primary Binding target: OPRK1 - Compounds are tested at 10 uM concentration, plate are incubated at room temperature in the dark for 90 minutes. Reaction are stopped by vacuum filtration onto 0.3% polyethyleneimine soaked filter mats using Filtermate harvester. Scintilation cocktail is then melted onto microwave-dried filters on a hot plate and the radio activity is counted in Microbia counter.

[8] = target: T4, Alpha-1D adrenergic receptor (Homo sapiens) (UniProt P25100)
T4 sequence (whole entry): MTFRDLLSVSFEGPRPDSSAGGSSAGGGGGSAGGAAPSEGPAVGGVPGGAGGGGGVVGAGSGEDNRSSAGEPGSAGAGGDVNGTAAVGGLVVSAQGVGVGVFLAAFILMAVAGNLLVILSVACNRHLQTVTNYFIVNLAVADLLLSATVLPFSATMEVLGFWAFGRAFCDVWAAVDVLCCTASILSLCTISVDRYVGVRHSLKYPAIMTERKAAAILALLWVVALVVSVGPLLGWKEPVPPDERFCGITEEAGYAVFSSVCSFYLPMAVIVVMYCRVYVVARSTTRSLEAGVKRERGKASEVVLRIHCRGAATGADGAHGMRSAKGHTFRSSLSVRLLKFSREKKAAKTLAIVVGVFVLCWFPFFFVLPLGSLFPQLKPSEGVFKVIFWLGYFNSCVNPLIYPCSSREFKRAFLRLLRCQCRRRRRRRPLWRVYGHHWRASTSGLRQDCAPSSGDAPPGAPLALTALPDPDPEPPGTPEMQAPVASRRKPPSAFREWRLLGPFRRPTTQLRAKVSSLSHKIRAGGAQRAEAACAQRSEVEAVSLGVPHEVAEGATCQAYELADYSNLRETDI
Description: PDSP Primary Binding target: ADRA1D - Compounds are tested at 10 uM concentration, plate are incubated at room temperature in the dark for 90 minutes. Reaction are stopped by vacuum filtration onto 0.3% polyethyleneimine soaked filter mats using Filtermate harvester. Scintilation cocktail is then melted onto microwave-dried filters on a hot plate and the radio activity is counted in Microbia counter.

[9] = target: Translocator protein (Homo sapiens) (UniProt P30536)
Translocator protein (Homo sapiens), sequence (P30536 whole entry): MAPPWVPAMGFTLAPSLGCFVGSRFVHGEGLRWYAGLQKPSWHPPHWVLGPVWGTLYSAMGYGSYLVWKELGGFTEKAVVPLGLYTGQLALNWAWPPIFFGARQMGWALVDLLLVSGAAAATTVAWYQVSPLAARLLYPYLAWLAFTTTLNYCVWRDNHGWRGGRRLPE
Description: PDSP Primary Binding target: TSPO - Compounds are tested at 10 uM concentration, plate are incubated at room temperature in the dark for 90 minutes. Reaction are stopped by vacuum filtration onto 0.3% polyethyleneimine soaked filter mats using Filtermate harvester. Scintilation cocktail is then melted onto microwave-dried filters on a hot plate and the radio activity is counted in Microbia counter.

[10] = target: Delta-type opioid receptor (Homo sapiens) (UniProt P41143)
Delta-type opioid receptor (Homo sapiens), sequence (P41143 whole entry): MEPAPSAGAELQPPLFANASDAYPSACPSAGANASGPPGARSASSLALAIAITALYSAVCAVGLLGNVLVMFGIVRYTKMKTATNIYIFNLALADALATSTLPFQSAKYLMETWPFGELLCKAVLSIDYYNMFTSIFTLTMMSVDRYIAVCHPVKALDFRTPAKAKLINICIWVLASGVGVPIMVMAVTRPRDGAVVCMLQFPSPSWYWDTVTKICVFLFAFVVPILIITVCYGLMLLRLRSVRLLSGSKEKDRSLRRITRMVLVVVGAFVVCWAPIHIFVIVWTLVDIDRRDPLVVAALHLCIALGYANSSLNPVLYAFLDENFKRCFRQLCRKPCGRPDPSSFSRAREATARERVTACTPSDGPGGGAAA
Description: PDSP Primary Binding target: OPRD1 - Compounds are tested at 10 uM concentration, plate are incubated at room temperature in the dark for 90 minutes. Reaction are stopped by vacuum filtration onto 0.3% polyethyleneimine soaked filter mats using Filtermate harvester. Scintilation cocktail is then melted onto microwave-dried filters on a hot plate and the radio activity is counted in Microbia counter.

[11] = target: Muscarinic acetylcholine receptor M3 (Homo sapiens) (UniProt P20309)
Muscarinic acetylcholine receptor M3 (Homo sapiens), sequence (P20309 whole entry, looked up): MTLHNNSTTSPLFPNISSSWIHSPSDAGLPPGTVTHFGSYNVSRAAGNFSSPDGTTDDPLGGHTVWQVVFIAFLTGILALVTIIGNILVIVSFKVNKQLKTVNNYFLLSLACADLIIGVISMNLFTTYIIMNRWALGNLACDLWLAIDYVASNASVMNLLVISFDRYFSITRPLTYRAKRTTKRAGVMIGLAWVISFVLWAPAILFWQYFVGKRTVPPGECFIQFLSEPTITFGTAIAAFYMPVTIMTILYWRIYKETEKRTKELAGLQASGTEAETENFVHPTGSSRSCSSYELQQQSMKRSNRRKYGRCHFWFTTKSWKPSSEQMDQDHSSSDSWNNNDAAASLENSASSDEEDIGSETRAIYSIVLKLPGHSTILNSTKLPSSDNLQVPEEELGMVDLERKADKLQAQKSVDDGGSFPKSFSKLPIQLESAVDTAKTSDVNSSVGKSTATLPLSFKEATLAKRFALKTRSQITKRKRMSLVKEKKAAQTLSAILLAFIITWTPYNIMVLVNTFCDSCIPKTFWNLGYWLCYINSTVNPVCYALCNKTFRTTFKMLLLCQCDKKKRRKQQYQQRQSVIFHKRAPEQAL
Description: PDSP Primary Binding target: CHRM3 - Compounds are tested at 10 uM concentration, plate are incubated at room temperature in the dark for 90 minutes. Reaction are stopped by vacuum filtration onto 0.3% polyethyleneimine soaked filter mats using Filtermate harvester. Scintilation cocktail is then melted onto microwave-dried filters on a hot plate and the radio activity is counted in Microbia counter.

SMILES	inhibition [1] [%]	inhibition [2] [%]	inhibition [3] [%]	inhibition [4] [%]	inhibition [5] [%]	inhibition [6] [%]	inhibition [7] [%]	inhibition [8] [%]	inhibition [9] [%]	inhibition [10] [%]	inhibition [11] [%]
C[C@H](CO)Nc1nc(SCc2cccc(Cl)c2F)nc2[nH]c(=O)sc12	-7.6	3.03	-1.9	19	6.98	7.09	11				
C/C(=N\NC(=O)[C@@H]1C(=O)NC[C@H]1c1ccccc1)c1cccc(Br)c1	4.55		-9.13	58.5	26.4	18.8	19.1	-1.53	46.9		
CC(C)NCC(O)COc1cccc2ccccc12 (centres undefined)	14.6		10.2		77.5	-2.95	16.1	12.7		7.31	
CCCCN(CC)c1nc(C)nc2c1c(C)cn2-c1c(C)cc(C)cc1C	18.2	14.4	-2.04	12.4	-6.24		43.2	16.5	74.3	7.66	
CN1C(=O)[C@@H](NC(=O)c2cc3ccccc3[nH]2)N=C(c2ccccc2)c2ccccc21	2.69	-6.37	-2.85	-6.55	-1.26	-2.34	30.7	-0.46	59.1	13	
COc1ccc(S(=O)(=O)c2cc(OC)ccc2S(=O)(=O)c2ccc([C@H](C)NS(C)(=O)=O)cc2)cc1	22.6	-4.35	14.2	-5.89		6.79	2.71		25.6		
COc1ccc(C2(O)OC(=O)C(c3ccc4c(c3)OCO4)=C2Cc2cc(OC)c(OC)c(OC)c2)cc1 (centres undefined)	3.1	-4.11		11.8	8.87	4.51	9.13	11	37		6.22
CCc1cc2c(c(CC)n1)CCC(=O)N2Cc1ccc(-c2ccccc2-c2nnn[nH]2)cc1	18.5	25.9		8.58	-4.87	-4.8	3.59		45.9		
Cc1cc(C)cc(C(=O)N(C)[C@H](Cc2ccc(-c3ccccc3)cc2)C(=O)N[C@@H](Cc2c[nH]c3ccccc23)C(=O)O)c1	22.3	1.27		15.5	15.9		46.1	7.51	28.8		0.07
C=CCN1C[C@H](C)N([C@H](c2ccc(C(=O)N(CC)CC)cc2)c2cccc(O)c2)C[C@H]1C	16.8	10.2		8.35			99.8		20.7	99.9	-6.19
CCCCN(CCCC)C(=O)CN1C[C@@H](c2ccc3c(c2)OCO3)[C@H](C(=O)O)[C@H]1c1ccc(OC)cc1	11.4	-5.54		3.82	-4.59		27.6		84.7	-0.59	
CCCn1c(=O)c2[nH]c(-c3cnn(Cc4cccc(C(F)(F)F)c4)c3)nc2n(CC)c1=O	-4.72	-5.87	-3.39	-0.63			-2.72		14.7	-6.13	3.75
COc1cc2c(CCNC(C)=O)c[nH]c2cc1Cl	1.85			3.86	-4.64		-6.29	6.2	20.1	-3.58	
Cc1cccc([C@H](C)c2c[nH]cn2)c1C	63	54.8	11.4		-0.33	-0.76		42.8	-0.25	-4.15	
CC(C)C[C@H](NC(=O)N1CCCCCC1)C(=O)N[C@H](Cc1cn(C)c2ccccc12)C(=O)N[C@H](Cc1ccccn1)C(=O)O	14.1	10.1	-0.58	5.31			-7.75		25.5		
CCc1cc(C(C)=O)c(O)cc1OCCCCCC(C)(C)c1nn[nH]n1	8.06	-3.95		17.1	-8.57	8.4	16.9	19.5	-1.68		8.78
CSc1ccc(C(=O)N[C@@H]2CCCC[C@@H]2NC(=O)CNC(=O)c2cc(C(F)(F)F)ccc2NC(=O)NC(C)C)cc1	7.53	-0.4		70.6	22.6	5.1	15.3		46.9	4.07	
CC(C)NCC(O)c1ccc(N)c(C#N)c1 (centres undefined)	-0.15	-5.56		34.1	37.6		9.69				-7.31
CC(C)(C)NC[C@H](O)COc1nsnc1N1CCOCC1	2.77	-6.31	6.52		39.4		3.37	8.6	0.37		
Nc1nc(NCCc2ccc(O)cc2)nc2nc(-c3ccco3)nn12	-6.79	2.08	27.8		-6.94		-5.28	8.13	22.4	2.38	-6.51
CN(C)C(=O)C(CCN1CCC(O)(c2ccc(Cl)cc2)CC1)(c1ccccc1)c1ccccc1	42.9	52.4	1.53		41.4	23.2		38	50	91.5	
Cc1cccc(NC(=O)N[C@@H]2N=C(c3ccccc3)c3ccccc3N(C)C2=O)c1	-7.27		0.34	12.5	-9.64		22.5		27.5	8.95	
